This test has as its target T1, Human M4 (Homo sapiens, UniProt P08173).
T1 construct: expressed in transfected cells
T1 sequence (P08173 1-479): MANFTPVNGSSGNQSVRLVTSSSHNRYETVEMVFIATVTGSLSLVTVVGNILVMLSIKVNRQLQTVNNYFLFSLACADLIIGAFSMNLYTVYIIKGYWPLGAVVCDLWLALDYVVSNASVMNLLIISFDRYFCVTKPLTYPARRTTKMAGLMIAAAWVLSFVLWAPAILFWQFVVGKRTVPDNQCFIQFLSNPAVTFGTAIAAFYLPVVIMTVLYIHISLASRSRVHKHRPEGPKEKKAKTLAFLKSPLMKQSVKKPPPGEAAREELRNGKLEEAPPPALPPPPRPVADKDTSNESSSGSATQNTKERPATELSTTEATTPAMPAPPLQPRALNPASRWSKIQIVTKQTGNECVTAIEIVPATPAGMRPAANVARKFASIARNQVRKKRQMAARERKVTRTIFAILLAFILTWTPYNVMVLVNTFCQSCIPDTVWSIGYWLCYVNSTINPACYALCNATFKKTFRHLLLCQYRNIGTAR
In words: mAChR M4 cell-based functional assay (calcium flux, potentiation of EC20 acetylcholine response), hM4-Gqi5 CHO-K1 cells. The settings on record: for Emax at 30 µM: % ACh maximum at 30 μM; for pEC50: calcium flux, read-out: Human M4 EC50. In short, it runs like this: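 Positive allosteric modulation was scored as a concentration-dependent rise in the response to an EC20 dose of acetylcholine, added 144 s after the compound. Human M4-Gqi5 CHO-K1 cells carried Fluo-4 dye, and compounds ran as 11-point, 3-fold dilution series. EC50 and Emax came from four-parameter logistic fits of the FDSS fluorescence-ratio traces.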

The mark [1] stands for this setting: CHO-K1, Table 3, Human M4, read-out: Emax (% ACh maximum at 30 μM).
Setting [2] is: Table 3, potentiation of EC20 acetylcholine response, CHO-K1 cells.
[3] abbreviates: CHO-K1, Table 4, Human M4, read-out: Emax (% ACh maximum at 30 μM).
[4] abbreviates: Table 4, potentiation of EC20 acetylcholine response, CHO-K1 cells.
[5] abbreviates: CHO-K1, human M4, read-out: Emax.
Where [6] appears, read: hM4-Gqi5 CHO-K1 cells, PAM of EC20 acetylcholine.

Among the data in patent US20250002507A1, “7,8-DIHYDRO-5H-1,6-NAPHTHYRIDINE DERIVATIVES AS POSITIVE ALLOSTERIC MODULATORS OF THE MUSCARINIC ACETYLCHOLINE RECEPTOR M4 FOR TREATING NEUROLOGICAL AND PSYCHIATRIC DISORDERS” (Vanderbilt University, priority 2021, published 2025) are Emax and EC50 values, retold here.

Molecules are shown by their SMILES. pEC50: −log10 of the molar value. Read-outs that look alike come from different tables or passages of the source.

For `Cc1c(N2CCc3ncc(N4CCC5(CC4)COC5)cc3C2)nn2c(C(F)(F)F)nnc2c1C` [Compound 274, 7-(6-(7,8-dimethyl-3-(trifluoromethyl)-[1,2,4]triazolo[4,3-b]pyridazin-6-yl)-5,6,7,8-tetrahydro-1,6-naphthyridin-3-yl)-2-oxa-7-azaspiro[3.5]nonane], the Emax at 30 µM under setting [1] was 65%. Also, under setting [2], the negative logarithm of the EC50 (pEC50) was 5.48.
In the case of `Cc1c(N2CCc3ncc(N4CCO[C@@H](c5ccccc5)C4)cc3C2)nn2c(C(F)(F)F)nnc2c1C` [Compound 323, (S)-4-(6-(7,8-dimethyl-3-(trifluoromethyl)-[1,2,4]triazolo[4,3-b]pyridazin-6-yl)-5,6,7,8-tetrahydro-1,6-naphthyridin-3-yl)-2-phenylmorpholine], the Emax at 30 µM under setting [3] stood at 46%. The pEC50 under setting [4] is 5.05.
For the molecule `COc1nc2c(cc1C)CN(c1nn3cnnc3c(C)c1C)CC2` [Compound 161, 6-(7,8-dimethyl-[1,2,4]triazolo[4,3-b]pyridazin-6-yl)-2-methoxy-3-methyl-5,6,7,8-tetrahydro-1,6-naphthyridine], the Emax at 30 µM under setting [1] amounted to 105%. Also, the pEC50 under setting [2] is 5.56.
On to `Cc1c(N2CCc3ncc(Oc4ccc(F)cc4F)cc3C2)nn2c(C(F)(F)F)nnc2c1C` [Compound 299, 3-(2,4-difluorophenoxy)-6-(7,8-dimethyl-3-(trifluoromethyl)-[1,2,4]triazolo[4,3-b]pyridazin-6-yl)-5,6,7,8-tetrahydro-1,6-naphthyridine], for which the Emax at 30 µM under setting [1] stood at 111%. The pEC50 under setting [2] was 6.67.
On to `Cc1noc(C)c1-c1cnc2c(c1)CN(c1nn3cnnc3c(C)c1C)CC2` [Compound 10, 4-[6-(7,8-dimethyl-[1,2,4]triazolo[4,3-b]pyridazin-6-yl)-7,8-dihydro-5H-1,6-naphthyridin-3-yl]-3,5-dimethyl-isoxazole], for which, under setting [5], the maximum response (Emax) at 30 µM was 78%. In addition, the pEC50 under setting [6] is 6.67.
For `Cc1c(N2CCc3ncc(-c4ccc(N5CCCC5)nc4)cc3C2)nn2cnnc2c1C` [Compound 207, 6-(7,8-dimethyl-[1,2,4]triazolo[4,3-b]pyridazin-6-yl)-3-(6-(pyrrolidin-1-yl)pyridin-3-yl)-5,6,7,8-tetrahydro-1,6-naphthyridine], the Emax at 30 µM under setting [1] turned out to be 73%. The pEC50 under setting [2] was 6.40.
For `Cc1cc2nncn2nc1N1CCc2ncc(CC(F)(F)F)cc2C1` [Compound 334, 6-(7-methyl-[1,2,4]triazolo[4,3-b]pyridazin-6-yl)-3-(2,2,2-trifluoroethyl)-5,6,7,8-tetrahydro-1,6-naphthyridine], under setting [3], the Emax at 30 µM is 74%. Besides, under setting [4], the pEC50 was 6.63.
Regarding `Cc1cc2nncn2nc1N1CCc2ncccc2C1` [Compound 151, 6-(7-methyl-[1,2,4]triazolo[4,3-b]pyridazin-6-yl)-7,8-dihydro-5H-1,6-naphthyridine], the Emax (CHO-K1) was determined as 93%.
Consider `Cc1c(N2CCc3ncc(-c4ccc(N5CCN(C)CC5)nc4)cc3C2)nn2cnnc2c1C` [Compound 187, 6-(7,8-dimethyl-[1,2,4]triazolo[4,3-b]pyridazin-6-yl)-3-(6-(4-methylpiperazin-1-yl)pyridin-3-yl)-5,6,7,8-tetrahydro-1,6-naphthyridine], for which, under setting [1], the Emax at 30 µM turned out to be 104%. Under setting [2], the negative-log EC50 (pEC50) was 7.20.
Consider `COCc1c(C)c(N2CCc3ncc(C(F)(F)F)cc3C2)nn2cnnc12` [Compound 350, 6-(8-(Methoxymethyl)-7-methyl-[1,2,4]triazolo[4,3-b]pyridazin-6-yl)-3-(trifluoromethyl)-5,6,7,8-tetrahydro-1,6-naphthyridine], for which the Emax at 30 µM under setting [3] is 77%. Besides, the negative logarithm of the EC50 (pEC50) under setting [4] is 5.29.
In the case of `CCOC(=O)c1c(C)nc2cc(C)c(N3CCc4ncc(N5CCCn6nccc65)cc4C3)nn12` [Compound 336, ethyl 6-(3-(6,7-dihydropyrazolo[1,5-a]pyrimidin-4(5H)-yl)-7,8-dihydro-1,6-naphthyridin-6(5H)-yl)-2,7-dimethylimidazo[1,2-b]pyridazine-3-carboxylate], the Emax at 30 µM under setting [3] turned out to be 72%. Besides, under setting [4], the pEC50 is 6.44.
In the case of `Cc1c(N2CCc3ncc(N4CCO[C@H](c5ccccc5)C4)cc3C2)nn2c(C(F)(F)F)nnc2c1C` [Compound 322, (R)-4-(6-(7,8-dimethyl-3-(trifluoromethyl)-[1,2,4]triazolo[4,3-b]pyridazin-6-yl)-5,6,7,8-tetrahydro-1,6-naphthyridin-3-yl)-2-phenylmorpholine], the Emax at 30 µM under setting [3] turned out to be 96%. The negative logarithm of the EC50 (pEC50) under setting [4] was 5.50.
For the molecule `Cc1c(N2CCc3ncc(C(=O)NCc4cccs4)cc3C2)nn2cnnc2c1C` [Compound 121, 6-(7,8-dimethyl-[1,2,4]triazolo[4,3-b]pyridazin-6-yl)-N-(2-thienylmethyl)-7,8-dihydro-5H-1,6-naphthyridine-3-carboxamide], the Emax at 30 µM under setting [5] came out at 100%. The pEC50 under setting [6] is 6.06.
Turning to `Cc1c(N2CCc3ncc(C(=O)N(C)Cc4ccco4)cc3C2)nn2cnnc2c1C` [Compound 126, 6-(7,8-dimethyl-[1,2,4]triazolo[4,3-b]pyridazin-6-yl)-N-(2-furylmethyl)-N-methyl-7,8-dihydro-5H-1,6-naphthyridine-3-carboxamide], the Emax at 30 µM under setting [5] is 55%.
Take `[2H]c1nnc2c(C)c(C)c(N3CCc4ncc(-c5cn(C)nc5C)cc4C3)nn12` [Compound 76, 6-(3-deuterio-7,8-dimethyl-[1,2,4]triazolo[4,3-b]pyridazin-6-yl)-3-(1,3-dimethylpyrazol-4-yl)-7,8-dihydro-5H-1,6-naphthyridine]: the maximal effect (Emax) at 30 µM under setting [5] is 101%. Besides, the pEC50 under setting [6] is 6.90.
For the molecule `Cc1ccc(Oc2cnc3c(c2)CN(c2nn4c(C(F)(F)F)nnc4cc2C)CC3)c(F)c1` [Compound 290, 3-(2-fluoro-4-methylphenoxy)-6-(7-methyl-3-(trifluoromethyl)-[1,2,4]triazolo[4,3-b]pyridazin-6-yl)-5,6,7,8-tetrahydro-1,6-naphthyridine], the Emax at 30 µM under setting [1] is 69%. In addition, the pEC50 under setting [2] is 5.77.
Turning to `Cc1c(N2CCc3ncc(-c4ccc(F)nc4)cc3C2)nn2cnnc2c1C` [Compound 42, 6-(7,8-dimethyl-[1,2,4]triazolo[4,3-b]pyridazin-6-yl)-3-(6-fluoro-3-pyridyl)-7,8-dihydro-5H-1,6-naphthyridine], the Emax at 30 µM under setting [5] is 94%. Besides, the pEC50 under setting [6] was 6.66.
For the molecule `Cc1c(N2CCc3ncc(N4CCOC(c5ccccn5)C4)cc3C2)nn2c(C(F)(F)F)nnc2c1C` (stereo not shown) [Compound 327, 4-(6-(7,8-dimethyl-3-(trifluoromethyl)-[1,2,4]triazolo[4,3-b]pyridazin-6-yl)-5,6,7,8-tetrahydro-1,6-naphthyridin-3-yl)-2-(pyridin-2-yl)morpholine], the Emax at 30 µM under setting [3] came to 68%. For the same molecule, under setting [4], the pEC50 was 5.88.
With `Cc1c(N2CCc3ncc(-c4ccnn4C)cc3C2)nn2cnnc2c1C` [Compound 137, 6-(7,8-dimethyl-[1,2,4]triazolo[4,3-b]pyridazin-6-yl)-3-(2-methylpyrazol-3-yl)-7,8-dihydro-5H-1,6-naphthyridine], the Emax at 30 µM under setting [5] was 99%. Also, under setting [6], the pEC50 is 6.53.
As for `Cc1c(N2CCc3ncc(N4CCOC[C@@H]4C)cc3C2)nn2c(C(F)(F)F)nnc2c1C` [Compound 315, (S)-4-(6-(7,8-dimethyl-3-(trifluoromethyl)-[1,2,4]triazolo[4,3-b]pyridazin-6-yl)-5,6,7,8-tetrahydro-1,6-naphthyridin-3-yl)-3-methylmorpholine], the Emax at 30 µM under setting [3] came out at 85%. Under setting [4], the negative-log EC50 (pEC50) was 5.72.
Turning to `Cc1cc2nccn2nc1N1CCc2ncc(-c3cnn(C4CCNCC4)c3)cc2C1` [Compound 150, 6-(7-methylimidazo[1,2-b]pyridazin-6-yl)-3-[1-(4-piperidyl)pyrazol-4-yl]-7,8-dihydro-5H-1,6-naphthyridine], the Emax at 30 µM under setting [5] came to 87%. Further, the pEC50 under setting [6] was 6.25.
`COc1nnc2c(C)c(C)c(N3CCc4ncc(C(F)(F)F)cc4C3)nn12` [Compound 270, 6-(3-Methoxy-7,8-dimethyl-[1,2,4]triazolo[4,3-b]pyridazin-6-yl)-3-(trifluoromethyl)-7,8-dihydro-5H-1,6-naphthyridine]: the maximal response (Emax) at 30 µM under setting [1] was found to be 97%. Also, the pEC50 under setting [2] is 6.77.
As to `[2H]c1nnc2c(C)c(C)c(N3CCc4ncc(Nc5cc(F)cc(F)c5F)cc4C3)nn12` [Compound 73, 6-(3-deuterio-7,8-dimethyl-[1,2,4]triazolo[4,3-b]pyridazin-6-yl)-N-(2,3,5-trifluorophenyl)-7,8-dihydro-5H-1,6-naphthyridin-3-amine], the Emax at 30 µM under setting [5] came to 92%. Moreover, the pEC50 under setting [6] was 6.94.
In the case of `Cc1cc2nncn2nc1N1CCc2ncc(Oc3cc(F)ccc3F)cc2C1` [Compound 295, 3-(2,5-difluorophenoxy)-6-(7-methyl-[1,2,4]triazolo[4,3-b]pyridazin-6-yl)-5,6,7,8-tetrahydro-1,6-naphthyridine], the maximal effect (Emax) at 30 µM under setting [1] came out at 109%. Moreover, the pEC50 under setting [2] is 7.39.
